In patent publication US10787444B2, “Compounds for the modulation of myc activity” (Syros Pharmaceuticals, Inc., priority 2015, dated 2020) one finds IC50 data, which are given here for 21 molecules.

One assay deals with T1, c-Myc/Max/Ebox DNA (Homo sapiens, UniProt P01106).
T1 construct: his6 (cleaved yes)
The assay can be described thus: c-Myc/Max/Ebox DNA AlphaScreen Assay. Particulars: calculated IC50 class. In kind it is binding. In outline:
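Compounds were preincubated with free c-Myc (20 nM), biotinylated single-Ebox DNA (10 nM) and Ni acceptor beads before his6-Max (5 nM) and streptavidin donor beads were added. Buffer was 50 mM HEPES pH 8.0, 150 mM NaCl, BSA, Tween20, glycogen and DTT, with DMSO ≤2%. After 2 h incubation, AlphaScreen signal was read at 680 nm excitation and 520–620 nm emission.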

Assay [1] has as its system human small lung cancer cell line H2171. As to the kind of experiment: Cell Viability Assay (ATPlite). In kind it is cell-based. Particulars: Homo sapiens, NCI-H2171, 72 h, read-out: H2171 Activity. In outline:
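H2171 cells were plated at 20,000 cells/mL and dosed immediately by pin transfer with a 10-point dose series in DMSO. After three days at 37° C, ATPlite luminescence served as the viability readout.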

The mark [2] stands for this setting: Table 2, compounds of FIG. 1, H2171 cells, three days, ATPlite, calculated IC50 class.
The mark [3] stands for this setting: Table 3, compounds of FIG. 2, H2171 cells, three days, ATPlite, calculated IC50 class.

pIC50: −log10 of the molar value. Structures can show the parent of a compound that is named as a salt. Where two headings read alike, the source gives them in different places.

T1 sequence (P01106 whole entry): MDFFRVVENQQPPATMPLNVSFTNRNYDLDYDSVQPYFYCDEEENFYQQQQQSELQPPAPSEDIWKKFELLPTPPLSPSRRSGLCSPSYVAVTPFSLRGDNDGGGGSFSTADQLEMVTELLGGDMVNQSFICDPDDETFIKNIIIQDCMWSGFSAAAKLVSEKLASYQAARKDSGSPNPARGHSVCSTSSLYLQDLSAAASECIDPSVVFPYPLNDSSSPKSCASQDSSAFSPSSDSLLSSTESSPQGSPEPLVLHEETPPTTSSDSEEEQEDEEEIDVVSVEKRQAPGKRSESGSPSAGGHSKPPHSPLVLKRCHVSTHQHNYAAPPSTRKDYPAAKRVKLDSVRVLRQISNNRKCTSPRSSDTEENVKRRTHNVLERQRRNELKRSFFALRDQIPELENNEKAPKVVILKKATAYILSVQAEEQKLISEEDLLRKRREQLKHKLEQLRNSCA

In the case of `CCC(C)NCCC(=O)Nc1sc2c(c1-c1nc3cc(C(F)(F)F)ccc3s1)CCN(C(C)C)C2` (stereo not drawn) [Compound 142, 3-(sec-butylamino)-N-(6-isopropyl-3-(5-(trifluromethyl)benzo[d]thiazol-2-yl)-4,5,6,7-tetrahydrothieno[2,3-c]pyridin-2-yl)propanamide], the pIC50 was more than 6.52 on c-Myc/Max/Ebox DNA (Table 2, compounds of FIG. 1) and more than 6.52 in assay [1] (setting [2]).

Turning to `CC[C@H](C)NCCC(=O)Nc1sc2c(c1-c1nc3cc(C(F)(F)F)ccc3s1)CCNC2` [Compound 152, (S)-3-(sec-butylamino)-N-(3-(5-(trifluoromethyl)benzo[d]thiazol-2-yl)-4,5,6,7-tetrahydrothieno[2,3-c]pyridin-2-yl)propanamide], the pIC50 is more than 6.52 on c-Myc/Max/Ebox DNA (Table 2, compounds of FIG. 1) and more than 6.52 in assay [1] (setting [2]).

As for `CC[C@@H](C)NCCC(=O)Nc1sc2c(c1-c1nc3ccccc3s1)CCNC2` [Compound 153, (R)—N-(3-(benzo[d]thiazol-2-yl)-4,5,6,7-tetrahydrothieno[2,3-c]pyridin-2-yl)-3-(sec-butylamino)propanamide], the pIC50 on c-Myc/Max/Ebox DNA (Table 2, compounds of FIG. 1) is 6.00 to 6.52; in assay [1] (setting [2]) it was more than 6.52.

Turning to `CC[C@H](C)NCCC(=O)Nc1sc2c(c1-c1nc3ccccc3s1)CCNC2` [Compound 154, (S)—N-(3-(benzo[d]thiazol-2-yl)-4,5,6,7-tetrahydrothieno[2,3-c]pyridin-2-yl)-3-(sec-butylamino) propanamide], the pIC50 on c-Myc/Max/Ebox DNA (Table 2, compounds of FIG. 1) is 6.00 to 6.52; in assay [1] (setting [2]), more than 6.52.

With `CC(C)N1CCc2c(sc(NC(=O)CCNCc3cn[nH]c3)c2-c2nc3ccccc3s2)C1` [Compound 155, 3-(((1H-pyrazol-4-yl)methyl)amino)-N-(3-(benzo[d]thiazol-2-yl)-6-isopropyl-4,5,6,7-tetrahydrothieno[2,3-c]pyridin-2-yl)propanamide], the pIC50 is more than 6.52 on c-Myc/Max/Ebox DNA (Table 2, compounds of FIG. 1) and more than 6.52 in assay [1] (setting [2]).

For the molecule `CC[C@H](C)NCCC(=O)Nc1sc2c(c1-c1nc3cc(F)ccc3s1)CCNC2` [Compound 156, (S)-3-(sec-butylamino)-N-(3-(5-fluorobenzo[d]thiazol-2-yl)-4,5,6,7-tetrahydrothieno[2,3-c]pyridin-2-yl)propanamide hydrochloride], the pIC50 is more than 6.52 on c-Myc/Max/Ebox DNA (Table 2, compounds of FIG. 1) and more than 6.52 in assay [1] (setting [2]).

As to `CC(C)NCCC(=O)Nc1sc2c(c1-c1nc3cc(-c4ccncc4)ccc3s1)CCNC2` [Compound 160, 3-(Isopropylamino)-N-(3-(5-(pyridin-4-yl)benzo[d]thiazol-2-yl)-4,5,6,7-tetrahydrothieno[2,3-c]pyridin-2-yl)propanamide dihydrochloride], the pIC50 on c-Myc/Max/Ebox DNA (Table 2, compounds of FIG. 1) is 6.00 to 6.52; in assay [1] (setting [2]), 6.00 to 6.52.

As to `CC(C)NCCC(=O)Nc1sc2c(c1-c1nc3cc(-n4ccnc4)ccc3s1)CCNC2` [Compound 178, N-(3-(5-(1H-imidazol-1-yl)benzo[d]thiazol-2-yl)-4,5,6,7-tetrahydrothieno[2,3-c]pyridin-2-yl)-3-(isopropylamino)propanamide dihydrochloride], the pIC50 at c-Myc/Max/Ebox DNA (Table 2, compounds of FIG. 1) was more than 6.52; in assay [1] (setting [2]) it was more than 6.52.

On to `CC[C@@H](C)NCCC(=O)Nc1sc2c(c1-c1nc3cc(C(F)(F)F)ccc3s1)CCNC2` [Compound 179, (R)-3-(sec-butylamino)-N-(3-(5-(trifluoromethyl)benzo[d]thiazol-2-yl)-4,5,6,7-tetrahydrothieno[2,3-c]pyridin-2-yl)propanamide], for which the pIC50 on c-Myc/Max/Ebox DNA (Table 2, compounds of FIG. 1) was more than 6.52; in assay [1] (setting [2]), more than 6.52.

As for `CC[C@@H](C)NCCC(=O)Nc1sc2c(c1-c1nc3cc(F)ccc3s1)CCNC2` [Compound 185, (R)-3-(sec-butylamino)-N-(3-(5-fluorobenzo[d]thiazol-2-yl)-4,5,6,7-tetrahydrothieno[2,3-c]pyridin-2-yl)propanamide], the pIC50 is more than 6.52 at c-Myc/Max/Ebox DNA (Table 2, compounds of FIG. 1) and more than 6.52 in assay [1] (setting [2]).

With `COCCNCCC(=O)Nc1sc2c(c1-c1nc3cc(F)ccc3s1)CCNC2` [Compound 189, N-(3-(5-fluorobenzo[d]thiazol-2-yl)-4,5,6,7-tetrahydrothieno[2,3-c]pyridin-2-yl)-3-((2-methoxyethyl)amino)propanamide], the pIC50 was more than 6.52 on c-Myc/Max/Ebox DNA (Table 2, compounds of FIG. 1) and more than 6.52 in assay [1] (setting [2]).

As for `O=C(CCNCc1c[nH]cn1)Nc1sc2c(c1-c1nc3ccccc3s1)CCNC2` [Compound 190, 3-(((1H-imidazol-4-yl)methyl)amino)-N-(3-(benzo[d]thiazol-2-yl)-4,5,6,7-tetrahydrothieno[2,3-c]pyridin-2-yl)propanamide], the pIC50 on c-Myc/Max/Ebox DNA (Table 2, compounds of FIG. 1) was more than 6.52; in assay [1] (setting [2]), more than 6.52.

Take `CCC(C)NCCC(=O)Nc1sc2c(c1-c1nc3ccccc3s1)CC[N+](C)(C(C)C)C2` (stereo not drawn) [Compound 191, 3-(benzo[d]thiazol-2-yl)-2-(3-(sec-butylamino)propanamido)-6-isopropyl-6-methyl-4,5,6,7-tetrahydrothieno[2,3-c]pyridin-6-ium]: the pIC50 at c-Myc/Max/Ebox DNA (Table 2, compounds of FIG. 1) was more than 6.52; in assay [1] (setting [2]) it was 5.00 to 6.00.

Consider `CCC(=O)NCCC(=O)Nc1sc2c(c1-c1nc3ccccc3s1)CCNC2` [Compound 199, N-(3-(benzo[d]thiazol-2-yl)-4,5,6,7-tetrahydrothieno[2,3-c]pyridin-2-yl)-3-propionamidopropanamide], for which the pIC50 was 5.00 to 6.00 on c-Myc/Max/Ebox DNA (Table 2, compounds of FIG. 1) and 5.00 to 6.00 in assay [1] (setting [2]).

`CC(=O)Nc1sc2c(c1-c1nc3ccccc3s1)CCN(C(C)C)C2` [Compound 200, N-(3-(benzo[d]thiazol-2-yl)-6-isopropyl-4,5,6,7-tetrahydrothieno[2,3-c]pyridin-2-yl)acetamide]: the pIC50 is 6.00 to 6.52 at c-Myc/Max/Ebox DNA (Table 3, compounds of FIG. 2) and 5.00 to 6.00 in assay [1].

In the case of `CCN1CCc2c(sc(NC(C)=O)c2-c2nc3ccccc3s2)C1` [Compound 201, N-(3-(benzo[d]thiazol-2-yl)-6-ethyl-4,5,6,7-tetrahydrothieno[2,3-c]pyridin-2-yl)acetamide], the pIC50 was 5.00 to 6.00 at c-Myc/Max/Ebox DNA (Table 3, compounds of FIG. 2) and 5.00 to 6.00 in assay [1].

For the molecule `CC(=O)Nc1sc2c(c1-c1nc3ccccc3s1)CCNC2` [Compound 202, N-(3-(benzo[d]thiazol-2-yl)-4,5,6,7-tetrahydrothieno[2,3-c]pyridin-2-yl)acetamide], the pIC50 at c-Myc/Max/Ebox DNA (Table 3, compounds of FIG. 2) is 5.00 to 6.00; in assay [1] (setting [3]), more than 6.52.

With `CC(=O)Nc1sc2c(c1-c1nc3cc(F)ccc3s1)CCNC2` [Compound 203, N-(3-(5-fluorobenzo[d]thiazol-2-yl)-4,5,6,7-tetrahydrothieno[2,3-c]pyridin-2-yl)acetamide], the pIC50 was 5.00 to 6.00 on c-Myc/Max/Ebox DNA (Table 3, compounds of FIG. 2) and 5.00 to 6.00 in assay [1] (setting [3]).

Consider `CC(=O)Nc1sc2c(c1-c1nc3cc(C(F)(F)F)ccc3s1)CCNC2` [Compound 204, N-(3-(5-(trifluoromethyl)benzo[d]thiazol-2-yl)-4,5,6,7-tetrahydrothieno[2,3-c]pyridin-2-yl)acetamide], for which the pIC50 at c-Myc/Max/Ebox DNA (Table 3, compounds of FIG. 2) was 5.00 to 6.00; in assay [1] (setting [3]), 5.00 to 6.00.

Take `CC(=O)Nc1sc2c(c1-c1nc3ccccc3s1)C(C)CNC2` (stereo not drawn) [Compound 205, N-(3-(benzo[d]thiazol-2-yl)-4-methyl-4,5,6,7-tetrahydrothieno[2,3-c]pyridin-2-yl)acetamide]: the pIC50 on c-Myc/Max/Ebox DNA (Table 3, compounds of FIG. 2) was less than 5.00; in assay [1] (setting [3]), less than 5.00.

For `CC(=O)Nc1sc2c(c1-c1nc3ccccc3s1)C(F)CNC2` (stereo not drawn) [Compound 217, N-(3-(benzo[d]thiazol-2-yl)-4-fluoro-4,5,6,7-tetrahydrothieno[2,3-c]pyridin-2-yl) acetamide], the pIC50 at c-Myc/Max/Ebox DNA (Table 3, compounds of FIG. 2) was less than 5.00; in assay [1] (setting [3]), more than 6.52.
